Experimental findings from PubChem BioAssay AID1259408 (Genetic Toxicology Data Bank (GENE-TOX), 2018) are described below.

In the series the test system is GENE-TOX genotoxicity assays, various organisms and cells. The series is described as follows: GENE-TOX mutagenicity studies. The settings on record: for call: Assay Type: In vivo carcinogenicity studies.
[1] abbreviates: Species/Cell Type: Salmonella typhimurium (one or more of the five standard strains: TA98, TA100, TA1535, TA1537, and TA1538), Assay Type: Histidine reverse gene mutation, Ames assay, Assay Code: SALT, Evaluation Type: Evaluation A (Pre-1980).
Setting [2] is: Species/Cell Type: Salmonella typhimurium (one or more of the five standard strains: TA98, TA100, TA1535, TA1537, and TA1538), Assay Type: Histidine reverse gene mutation, Ames assay, Assay Code: SAL+, Evaluation Type: Evaluation A (Pre-1980).
Setting [3] is: Species/Cell Type: Saccharomyces cerevisiae, Assay Type: Reverse gene mutation, Assay Code: YER+, Evaluation Type: Evaluation A (Pre-1980).
[4] abbreviates: Species/Cell Type: Saccharomyces cerevisiae, Assay Type: Mitotic recombination or gene conversion, Assay Code: YEC-, Evaluation Type: Evaluation A (Pre-1980).
Where [5] appears, read: Species/Cell Type: Nonhuman, Assay Type: Sister-chromatid exchange (SCE) in vitro, Assay Code: SC2T, Evaluation Type: Evaluation B (Post-1980).
[6] abbreviates: Species/Cell Type: Mammalian cell culture, nonhuman, Assay Type: Micronucleus test in vitro, chromosome aberrations, Assay Code: MN&+, Evaluation Type: Evaluation A (Pre-1980).
Where [7] appears, read: Species/Cell Type: Mouse, Sex: Male, Assay Type: Sperm morphology, Assay Code: SPI-, Evaluation Type: Evaluation A (Pre-1980).
The mark [8] stands for this setting: Species/Cell Type: Saccharomyces cerevisiae, Assay Type: Mitotic recombination or gene conversion, Assay Code: YEH-, Evaluation Type: Evaluation A (Pre-1980).
[9] abbreviates: Species/Cell Type: Bacillus subtilis (H17 vs M45), Assay Type: Rec-assay, spot test, DNA effects (bacterial DNA repair), Assay Code: REW-, Evaluation Type: Evaluation A (Pre-1980).

Calls of active or inactive are those of the source. No rule for the calls is given here.

In the case of `COc1ccc2c3c([nH]c2c1)C(C)=NCC3`, under setting [1], the mutagenic call was “no conclusion”.

Take `CS/C(C)=N/OC(=O)N(C)N=O`: the mutagenic call under setting [2] is “active; positive”.

In the case of `COC(=O)COc1ccc(Br)cc1CCl` (tested in a mixture with another compound), the mutagenic call under setting [3] was “active; positive”.

For the compound `C`, the mutagenic call (Species/Cell Type: Nonhuman, Assay Type: Sister-chromatid exchange (SCE) in vitro, Assay Code: SC2+, Evaluation Type: Evaluation B (Post-1980)) was “active; positive”.

For `NC(N)=NS(=O)(=O)c1ccc(N)cc1`, the mutagenic call (Species/Cell Type: Salmonella typhimurium (one or more of the five standard strains: TA98, TA100, TA1535, TA1537, and TA1538), Assay Type: Histidine reverse gene mutation, Ames assay, Assay Code: SAL-, Evaluation Type: Evaluation A (Pre-1980)) was “inactive; negative”.

In the case of `CC(=O)OC1C2OC2C2=CC(O)C3(CC2(C)C1C)OC3(C)CO` (centres undefined), under setting [4], the mutagenic call was “inactive; negative”.

In the case of `CC(=O)O[C@H]1[C@H]2O[C@H]2C2=CC(=O)[C@]3(C[C@]2(C)[C@H]1C)O[C@]3(C)C=O`, the mutagenic call is, setting by setting: (Species/Cell Type: Bacillus subtilis (H17 vs M45), Assay Type: Rec-assay, spot test, DNA effects (bacterial DNA repair), Assay Code: REW+, Evaluation Type: Evaluation A (Pre-1980)) “active; positive”; (Species/Cell Type: Neurospora crassa, Assay Type: Reverse gene mutation, Assay Code: NER+, Evaluation Type: Evaluation A (Pre-1980)) “active; positive”; under setting [5], “no conclusion”; (Species/Cell Type: Saccharomyces cerevisiae, Assay Type: Mitotic recombination or gene conversion, Assay Code: YEC+/-*, Activation: With metabolic activation, Evaluation Type: Evaluation A (Pre-1980)) “inactive; positive without activation, negative with activation”; (Species/Cell Type: Saccharomyces cerevisiae, Assay Type: Mitotic recombination or gene conversion, Assay Code: YEH+, Evaluation Type: Evaluation A (Pre-1980)) “active; positive”; under setting [3], “active; positive”. Also, the mutagenic call under setting [1] is “no conclusion”.

As for `[2H]O[2H]`, under “Species/Cell Type: Drosophila melanogaster, Sex: Male, Assay Type: Heritable translocation test, chromosome aberrations, Assay Code: DHTT, Evaluation Type: Evaluation A (Pre-1980)”, the mutagenic call is recorded as “no conclusion”.

Consider `C=CN(C)N=O`, for which the mutagenic call (Species/Cell Type: Drosophila melanogaster, Assay Type: Sex-linked recessive lethal gene mutation, Assay Code: SRL+, Evaluation Type: Evaluation A (Pre-1980)) was “active; positive”. For the same compound, the call (Species/Cell Type: Nonhuman, Assay Code: CCG+, Evaluation Type: Evaluation A (Pre-1980)) is “active; positive”.

Turning to `C=CCNC(=O)OC1(SC)C(=O)c2ccccc2C1=O`, the mutagenic call (Species/Cell Type: Salmonella typhimurium, Assay Type: Forward and reverse gene mutation, host-mediated assay, Assay Code: HMAT, Evaluation Type: Evaluation A (Pre-1980)) is on record as “no conclusion”.

In the case of `Nc1ncnc2c1ccn2[C@@H]1O[C@H](CO)[C@@H](O)[C@H]1O`, the mutagenic call (Species/Cell Type: Fischer rat embryo (RLV/1706) cells, Assay Type: Cell transformation, viral enhanced, Assay Code: CTR-, Evaluation Type: Evaluation A (Pre-1980)) was “inactive; negative”.

Consider `CCN(CC)Cc1cc(Br)ccc1OCC(=O)N/N=C/c1ccccc1O`, for which the mutagenic call (Species/Cell Type: Saccharomyces cerevisiae, Assay Type: Reverse gene mutation, Assay Code: YERT, Evaluation Type: Evaluation A (Pre-1980)) is given as “no conclusion”.

On to `CC[n+]1c(-c2ccccc2)c2cc(N)ccc2c2ccc(N)cc21`, for which the mutagenic call is “active; positive” (Species/Cell Type: Chinese hamster ovary (CHO) cells, Assay Type: Forward gene mutation at the HPRT locus, Assay Code: CHO+, Evaluation Type: Evaluation B (Post-1980)); “active; positive” (Species/Cell Type: Escherichia coli polA (W3119 vs P3478), Assay Type: Rec-assay, DNA effects (bacterial DNA repair), Assay Code: RE1+, Evaluation Type: Evaluation A (Pre-1980)); “active; positive” under setting [6]; “no conclusion” (Species/Cell Type: Mammalian germ cells, Sex: Male, Assay Type: Chromosome aberrations in vivo, Assay Code: CY9T, Evaluation Type: Evaluation A (Pre-1980)); “inactive; negative” under setting [7]; “inactive; negative” under setting [4]. Besides, the mutagenic call reads like this: under setting [8], “inactive; negative”; (Species/Cell Type: Saccharomyces cerevisiae, Assay Type: Reverse gene mutation, Assay Code: YER-, Evaluation Type: Evaluation A (Pre-1980)) “inactive; negative”; under setting [2], “active; positive”; (Species/Cell Type: Syrian hamster embryo (SA7/SHE) cells, Assay Type: Cell transformation, viral enhanced, Assay Code: CT7-, Evaluation Type: Evaluation A (Pre-1980)) “inactive; negative”.

As to `CN(C)CCC=C1c2ccccc2C=Cc2ccccc21`, under setting [1], the mutagenic call is “no conclusion”.

With `O=[Se](=O)(O)O`, the mutagenic call is “inactive; negative” under setting [9]; “active; positive” (Species/Cell Type: Human diploid fibroblasts, Assay Type: Unscheduled DNA synthesis (UDS) in vitro, DNA effects, Assay Code: UDH+, Evaluation Type: Evaluation A (Pre-1980)); “no conclusion” (Species/Cell Type: Human lymphocytes, Assay Type: Sister-chromatid exchange (SCE) in vitro, Assay Code: SCLT, Evaluation Type: Evaluation B (Post-1980)); “no conclusion” (Species/Cell Type: Human, Assay Type: Sister-chromatid exchange (SCE) in vitro, Assay Code: SC1T, Evaluation Type: Evaluation B (Post-1980)); “active; positive” (Species/Cell Type: Nonhuman, Assay Type: Sister-chromatid exchange (SCE) in vitro, Assay Code: SC2+*, Activation: With metabolic activation, Evaluation Type: Evaluation B (Post-1980)); “active; positive” under setting [2].

Take `O=[N+]([O-])c1ccc(N2CCN(Cc3ccccc3)CC2)c2c1no[n+]2[O-]`: the mutagenic call under setting [2] is “active; positive”.

Turning to `CC1=C(/C=C/C(C)=C/C=C/C(C)=C/CO)C(C)(C)CCC1`, the mutagenic call runs as follows: under setting [7], “inactive; negative”; under setting [5], “no conclusion”.

As to `Cc1cc(-c2ccccc2C)ccc1N`, the mutagenic call was “active; positive” (Species/Cell Type: Escherichia coli polA (W3110 vs P3478), Assay Type: Rec-assay, DNA effects (bacterial DNA repair), Assay Code: RE2+, Evaluation Type: Evaluation A (Pre-1980)); “no conclusion” (Species/Cell Type: Escherichia coli polA (W3119 vs P3478), Assay Type: Rec-assay, DNA effects (bacterial DNA repair), Assay Code: RE1T, Evaluation Type: Evaluation A (Pre-1980)); “active; positive” (Species/Cell Type: Rat primary hepatocytes, Assay Type: Unscheduled DNA synthesis (UDS) in vitro, DNA effects, Assay Code: UDP+, Evaluation Type: Evaluation A (Pre-1980)); “inactive; negative” under setting [8]; “active; positive” (Species/Cell Type: Salmonella typhimurium (one or more of the five standard strains: TA98, TA100, TA1535, TA1537, and TA1538), Assay Type: Histidine reverse gene mutation, Ames assay, Assay Code: SAL+*, Activation: With metabolic activation, Evaluation Type: Evaluation A (Pre-1980)); “active; positive” (Species/Cell Type: Salmonella typhimurium, Assay Type: Forward and reverse gene mutation, body fluid assay, Assay Code: BFU+, Evaluation Type: Evaluation A (Pre-1980)). For the same compound, the mutagenic call by setting is: (Species/Cell Type: Salmonella typhimurium, Assay Type: Forward and reverse gene mutation, host-mediated assay, Assay Code: HMA+, Evaluation Type: Evaluation A (Pre-1980)) “active; positive”; (Species/Cell Type: Syrian hamster embryo (SHE) cells, Assay Type: Cell transformation, clonal assay, Assay Code: CTC+D, Dose Response: With dose response, Evaluation Type: Evaluation A (Pre-1980)) “active; positive”.

For the compound `Cc1cc2cc3cc(C)c(N)cc3nc2cc1N`, the mutagenic call was “active; positive” under setting [6] and “active; positive” (Species/Cell Type: Saccharomyces cerevisiae, Assay Type: Mitotic recombination or gene conversion, Assay Code: YEC+, Evaluation Type: Evaluation A (Pre-1980)).

In the case of `O=C1c2ccccc2-c2ccc(Oc3ccc(S(=O)(=O)O)cc3)c3cccc1c23`, under setting [2], the mutagenic call was “active; positive”.

`Nc1ncc(/C=C/c2ccc([N+](=O)[O-])o2)nn1`: the mutagenic call was “inactive; negative” under setting [9]; “active; positive” (Species/Cell Type: Escherichia coli WP2, Assay Type: Tryptophan reverse gene mutation, Assay Code: WP2+, Evaluation Type: Evaluation A (Pre-1980)); “active; positive” (Species/Cell Type: Escherichia coli WP2 UVRA, Assay Type: Tryptophan reverse gene mutation, Assay Code: WPU+D, Dose Response: With dose response, Evaluation Type: Evaluation A (Pre-1980)).

For `CN(C)CCCN1c2ccccc2Sc2ccc(Cl)cc21`, the mutagenic call (Species/Cell Type: Chinese hamster lung (V79) cells, Assay Type: Forward gene mutation at the HPRT or ouabain locus, Assay Code: V79-, Evaluation Type: Evaluation A (Pre-1980)) is “inactive; negative”; the mutagenic call (Species/Cell Type: Human lymphocytes, Assay Type: Sister-chromatid exchange (SCE) in vitro, Assay Code: SCL+D, Dose Response: With dose response, Evaluation Type: Evaluation B (Post-1980)) is “active; positive”; the mutagenic call (Species/Cell Type: Human, Assay Type: Sister-chromatid exchange (SCE) in vitro, Assay Code: SC1+D, Dose Response: With dose response, Evaluation Type: Evaluation B (Post-1980)) was “active; positive”; the mutagenic call (Species/Cell Type: Nonhuman, Assay Type: Sister-chromatid exchange (SCE) in vitro, Assay Code: SC2+D, Dose Response: With dose response, Evaluation Type: Evaluation A (Pre-1980)) was “active; positive”; the mutagenic call (Species/Cell Type: Nonhuman, Assay Type: Sister-chromatid exchange (SCE) in vivo, Assay Code: SC3T, Evaluation Type: Evaluation B (Post-1980)) is given as “no conclusion”. Further, where the note is “Species/Cell Type: Nonhuman, Assay Code: CCGT, Evaluation Type: Evaluation A (Pre-1980)”, the call is on record as “no conclusion”.
